According to patent US9193755B1, “TFEB variants and uses thereof” (Fondazione Telethon, priority 2011, dated 2015):

Key:
long-lived proteins = assay: Degradation of long-lived proteins; format: cell-based; conditions: autophagy inhibitor added
Description: Sub-confluent cells were incubated with L-U^14C-serine for 20 h and chased for 1 h with cold media to degrade short-lived proteins. Subsequently cells were incubated with either normal media or starvation media (eventually in the presence of 3-MA) for 4 h. The rate of long-lived protein degradation was calculated from the ratio of soluble radioactivity in the media to that insoluble in the acid-precipitable cell pellet.

mTORC1 = mTORC1 activity by level of p-P70S6K (immunoblotting); format: cell-based, human; conditions: HeLa cells treated overnight
Description: Cells were lysed with M-PER buffer (Thermo) containing protease and phosphatase inhibitors (Sigma); nuclear/cytosolic fractions were isolated as above described. […] Immunoblotting analysis was performed by transferring the protein onto a nitrocellulose membrane with an I-Blot (Invitrogen). The membrane was blocked with 5% non-fat milk in TBS-T buffer (TBS containing 0.05% Tween-20) and incubated with primary antibodies anti-FLAG and anti-TUBULIN (Sigma; 1:2000), anti-H3 (Cell Signaling; 1:10 000) at room temperature for 2 h whereas the following antibodies were incubated ON in 5% BSA: anti-TFEB (My Biosource; 1:1000), anti-P TFEB (1:1000) ERK1/2, p-ERK1/2, p-P70S6K, P70S6K (Cell Signaling; 1:1000). The membrane was washed three times with TBS-T buffer and incubated with alkaline phosphatase-conjugated IgG (Promega; 0.2 mg/ml) at room temperature for 1 h. The membrane was washed three times with TBS buffer and the expressed proteins were visualized by adding 10 ml Western Blue Stabilized Substrate (Promega).

TFEB = TFEB nuclear translocation in starved / re-stimulated HeLa cells (nuclear/cytosolic fractionation, immunofluorescence); format: cell-based, human; conditions: for nuclear translocation of exogenously expressed TFEB: HeLa and HEK-293T cells transfected with TFEB-3xFLAG, treated overnight; for TFEB nuclear translocation compared to starved media alone: EBSS media supplemented with the factor
Description: Cells were seeded at 50% of confluence in 6 well dishes and serum starved overnight (ON). Normal medium was added the following day either in presence of DMSO or kinase inhibitors. Subcellular fractionation was carried out as previously reported.

TFEB S142 = TFEB S142 phosphorylation with p-S142 phosphospecific antibody; format: cell-based, human; conditions: starved cells supplemented with normal media
Description: The mouse anti-TFEB monoclonal antibody was purchased from My Biosource catalogue No. MBS120432. To generate anti-pS142 specific antibodies, rabbits were immunized with the following peptide coupled to KLH: AGNSAPN{pSer}[…]. Following the fourth immunization, rabbits were sacrificed and the serum was collected. Non-phosphospecific antibodies were depleted from the serum by circulation through a column containing the non-phosphorylated antigene. The phosphospecific antibodies were subsequently purified using a column containing the phosphorylated peptide.
Cells were lysed with M-PER buffer (Thermo) containing protease and phosphatase inhibitors (Sigma); nuclear/cytosolic fractions were isolated as above described. Proteins were separated by SDS-PAGE (Invitrogen; reduced NuPAGE 4-12% Bis-tris Gel, MES SDS buffer). If needed, the gel was stained using 20 ml Imperial Protein Stain (Thermo Fisher) at room temperature for 1 h and de-stained with water. Immunoblotting analysis was performed by transferring the protein onto a nitrocellulose membrane with an I-Blot (Invitrogen). […]

primary hepatocytes = conditions: for upregulation / transcriptional response of TFEB target genes: hepatocytes from TFEB conditional knockout mice; for levels of P-ERK / mTOR as measured by the level of p-S6K: primary hepatocytes
Description: Liver was dissociated in a petri dish, cell pellet was washed in HBSS and plated at density of 5×10^5 cells/35 mm dish and cultured in William's medium E supplemented with 10% FBS, 2 mM glutamine, 0.1 mM Insulin, 0.1 mM Dexamethasone and pen/strep. The next day, cells were treated as described in the text.
Total RNA was extracted from tissues using TRIzol (Invitrogen) or from cells using RNAesy column (Qiagen). Reverse transcription was performed using TaqMan reverse transcription reagents (Applied Biosystems). Lysosomal and autophagic gene specific primers were previously reported^2. Autophagy gene primers and mouse primers were purchased from SABiosciences. Fold change calculations were calculated using SABiosciences' online data analysis website (http colon double forward slash www dot sabiosciences dot com forward slash per forward slash arrayanalysis dot php) which uses the DDCt method. […] Next, the DDCt value is calculated between the “control” group and the “experimental” group. Lastly, the fold change is calculated using 2^(−DDCt). Biological replicates were grouped to allow calculating the fold change values. Unpaired T-Test was used to calculate statistical significance. Asterisks in the graph indicate that the P-value was <0.05.

mTOR = mTOR (Homo sapiens, UniProt P42345); conditions: recent data (41, 47, 48); cited from earlier work
[1] = Dissolution of test peptides for in vitro kinase assay; format: physicochemical; conditions: 1 mM in 50 mM HEPES pH7
Description: TFEB-S-142: aa. o 117-166 of Seq Id No. 2: […] and TFEB-A-142: Seq Id No. 4, corresponding to aa. of 117-166 of Seq Id No. 2 where Ser 142 was substituted with Ala (bold): […] were synthesized by […] corp. The test peptides TFEB-A-142 and TFEB-S-142 were made up to 1 mM in 50 mM HEPES pH7. […] The kinase assay was performed at room temperature for 40 minutes at 200 μM ATP and 100 μM of each peptide, using Millipore's standard radiometric assay. All protein kinases were used at their standard KinaseProfiler™ assay concentration. Following incubation, all assays were stopped by the addition of acid and an aliquot spotted onto P30 and Filtermat A to separate products. All tests were carried out in triplicate, and the usual substrate for each protein kinase included as a control. In Vivo Gene Delivery

Compound: Cn1cnc(N)c2ncnc1-2 [3-methyl adenine, reference compound]
- TFEB-induced enhancement of long-lived protein degradation (long-lived proteins): abolished

Compound: CC/C=C\C=C/C(=O)N/C=C/C[C@H]1C[C@@H](O)[C@@H](C)C/C=C/Cc2cccc(O)c2C(=O)O1 [Salicylihalamide A]
- mTORC1 activity as measured by level of p-P70S6K (mTORC1): inhibited
- nuclear translocation of exogenously expressed TFEB (TFEB): induced nuclear translocation

Compound: CCC(=O)N1CCN(c2ccc(-n3c(=O)ccc4cnc5ccc(-c6cnc7ccccc7c6)cc5c43)cc2C(F)(F)F)CC1 [Torin 1]
- nutrient-induced S142 phosphorylation (TFEB S142): clearly blunted
- TFEB subcellular localization (TFEB; starved cells stimulated with amino-acid rich medium, Torin 1 250 nM, Rapamycin 2.5 μM): massive TFEB nuclear accumulation
- upregulation / transcriptional response of TFEB target genes (primary hepatocytes): significantly reduced
- levels of P-ERK (primary hepatocytes): unaffected
- mTOR as measured by the level of p-S6K (primary hepatocytes): inhibited mTOR

Compound: Nc1ccc(-c2ccc3ncc4ccc(=O)n(-c5cccc(C(F)(F)F)c5)c4c3c2)cn1 [Torin 2]
- mTOR inhibition (mTOR): completely inhibiting mTOR activity

Compound: N#CC(=C(/N)Sc1ccccc1N)/C(C#N)=C(\N)Sc1ccccc1N [U0126]
- TFEB molecular weight shift induced by nutrients (TFEB): only a partial TFEB molecular weight shift
- TFEB nuclear localization (TFEB): resulted in TFEB nuclear localization, at level similar to starvation

Compound: CCN(CC)CCCC(C)Nc1ccnc2cc(Cl)ccc12 (stereo not drawn) [chloroquine]
- nuclear translocation of exogenously expressed TFEB (TFEB): induced nuclear translocation
- upregulation / transcriptional response of TFEB target genes (primary hepatocytes): significantly blunted
- expression of TFEB target genes (primary hepatocytes; hepatocytes from control mice): upregulated
- levels of P-ERK (primary hepatocytes): unaffected
- mTOR as measured by the level of p-S6K (primary hepatocytes): inhibited mTOR

Compound: EGF: growth factor supplemented to EBSS media (NSDSECPLSHDGYCLHDGVCMYIEALDKYACNCVVGYIGERCQYRDLKWWELR; UniProt P01133 971-1023, looked up)
- TFEB nuclear translocation compared to starved media alone (TFEB): significant inhibition

Compound: LIF: cytokine supplemented to EBSS media
- TFEB nuclear translocation compared to starved media alone (TFEB): Almost no effect

Compound: PPPAASPGVRAGHVLSSSAGNSAPNAPMAMLHIGSNPERELDDVIDNIMR [TFEB-A-142]
- dissolution [1]: no issue with dissolution

Compound: PPPAASPGVRAGHVLSSSAGNSAPNSPMAMLHIGSNPERELDDVIDNIMR (listed as Homo sapiens) [TFEB-S-142, peptide aa]
- dissolution [1]: no issue with dissolution

Compound: insulin: growth factor supplemented to EBSS media
- TFEB nuclear translocation compared to starved media alone (TFEB): significant inhibition
